# Results taken from patent US20110059979A1, “Piperidine/Cyclohexane Carboxamide Derivatives For Use as Vanilloid Receptor Modulators” (GLAXO GROUP LIMITED, priority 2003, published 2011).
# Tested on: FCA-Induced Hyperalgesia
# Assay: FCA-Induced Hyperalgesia in the Guinea Pig
# Assay type: in vivo
# Conditions: dose of 5 mg/kg po
# Experimental: (b) FCA-Induced Hyperalgesia in the Guinea Pig Compounds having a pKb>7.0 in vitro, according to model (a) were tested in this model of hyperalgesia (see WO 2004/024710 for details) and shown to be active.
smiles,measurement,value
"Cn1c(=O)ccc2c(NC(=O)C3CCN(c4ccc(Cl)cc4)CC3)cccc21 [Example 1, 1-(4-Chlorophenyl)-N-(1-methyl-2-oxo-1,2-dihydro-5-quinolinyl)-4-piperidinecarboxamide]",activity in FCA-induced hyperalgesia model,significant activity
